From patent US20230286973A1, “PROTEIN SECRETION INHIBITORS” (KEZAR LIFE SCIENCES, priority 2020, published 2023)

How the values were obtained:
[1] = test system: PD1-ss+10aa/Gaussia Luciferase; test: Dox-Induced PD1-ss-Gluc Assay; assay type: cell-based; details: 24 hr Dox induction; 293FRT/TO cells; mean; read-out: 24 hr Dox Inducible PD1ssGluc 293FRT/TO: Mean IC50
Outline: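 The cell line was made by transfecting Flp-In 293 T-REx cells with a PD1 signal sequence+10aa–Gaussia luciferase fusion under T-REx control and selecting with hygromycin and blasticidin. Cells were seeded, and next day compound plus doxycycline was added at 37 °C, 5% CO2.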

[2] = test system: TNFα-FL/Gaussia Luciferase; test: Dox Induced TNFα-FL-Gluc Assay; assay type: cell-based; details: for IC50: 24 hr Dox induction, 293FRT/TO cells, mean, read-out: 24 hr Dox Inducible TNFaFLGluc 293FRT/TO: Mean IC50; for 24 hr Dox Inducible TNFaFLGluc 293FRT/TO: TNF/PD1: ratio of TNFaFLGluc IC50 to PD1ssGluc IC50, '<=>' given where both are I.A.
Outline: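 Flp-In 293 T-REx cells stably expressing full-length TNFα (aa 1-233) fused at its C-terminus to Gaussia luciferase under tetracycline-regulated control were plated the day before assay. Compound dilutions in DMSO/media containing doxycycline were added and incubated at 37 °C, 5% CO2. Unspecified stereochemistry denotes stereoisomer mixtures.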

[3] = test system: HER3-ss+4aa/Gaussia Luciferase; test: Dox-Induced Her3-ss-Gluc Assay; assay type: cell-based; details: 24 hr Dox induction; 293FRT/TO cells; mean; read-out: 24 hr Dox Inducible Her3(ss + 4)Gluc 293FRT/TO: Mean IC50
Outline: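 Stable Flp-In 293 T-REx line expressing Gaussia luciferase fused to the HER3 signal sequence plus 4 amino acids under tetracycline-regulated (T-REx) control. Cells plated the day before, then treated with compound dilutions in DMSO/media containing doxycycline and incubated at 37° C., 5% CO2.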

[4] = test system: IL-2-FL/Gaussia Luciferase; test: Dox Induced IL2-FL-Gluc Assay; assay type: cell-based; details: for IC50: 24 hr Dox induction, 293FRT/TO cells, mean, read-out: 24 hr Dox Inducible IL2FLGluc 293FRT/TO: Mean IC50; for 24 hr Dox Inducible IL2FLGluc 293FRT/TO: IL2/PD1: ratio of IL2FLGluc IC50 to PD1ssGluc IC50, '<=>' given where both are I.A.
Outline: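 Flp-In 293 T-REx cells stably carrying doxycycline-inducible full-length IL-2 (aa 1-153) fused at its C-terminus to Gaussia luciferase, selected with hygromycin and blasticidin. Cells were plated the day before, then treated with compounds in DMSO/media containing doxycycline at 37° C, 5% CO2.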

[5] = test system: multiple myeloma cell line NCI-H929; test: H929 Cell Viability Assay; assay type: cell-based, human; details: Homo sapiens, NCI-H929, 48 h, NCI-H929 cells, Celltiter-Glo
Outline: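 NCI-H929 cells, resuspended in RPMI 1640 with 10% FBS and 2 mM glutamine, were treated with compound dilutions in DMSO/media and incubated 48 hours at 37° C, 5% CO2. Viability was read by CellTiter-Glo luminescence. Compounds drawn without stereochemistry were tested as stereoisomer mixtures.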

[6] = test system: multiple myeloma cell line U266B1; test: U266 Cell Viability Assay; assay type: cell-based, human; details: Homo sapiens, U-266, 48 h, U266B1 cells, Celltiter-Glo
Outline: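 Cells grown in RPMI 1640 with 10% FBS, 2 mM glutamine and penicillin/streptomycin were exposed to compound dilutions in DMSO/media for 48 hours at 37° C., 5% CO2. Viability was read by CellTiter-Glo luminescence. Undefined stereocentres mean data for stereoisomer mixtures.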

[7] = Liver Microsome Stability Assay (rat); details: rat liver microsomes, with NADPH, 1.0 uM compound
Protocol: (§1) Stability of a compound was assessed in the presence of liver microsomes from various sources—mouse, rat, monkey and human liver microsomes. 1.0 uM compound, 0.4% DMSO in 0.1 M Potassium Phosphate with 1.0 mg/mL liver microsomes, were incubated at 37° C. with or without 1 mM NADPH. The samples were quenched at 0, and 30 minutes.

[8] = Liver Microsome Stability Assay (mouse); details: mouse liver microsomes, with NADPH, 1.0 uM compound
Protocol: as §1

[9] = Liver Microsome Stability Assay (human); details: human liver microsomes, with NADPH, 1.0 uM compound
Protocol: as §1

[10] = Liver Microsome Stability Assay (monkey); details: monkey liver microsomes, with NADPH, 1.0 uM compound
Protocol: as §1

Row | Structure (SMILES) | IC50 [1] [nM] | IC50 [2] [nM] | 24 hr Dox Inducible TNFaFLGluc 293FRT/TO: TNF/PD1 [2] | IC50 [3] [nM] | IC50 [4] [nM] | 24 hr Dox Inducible IL2FLGluc 293FRT/TO: IL2/PD1 [4] | EC50 [5] [nM] | EC50 [6] [nM] | Liver Microsome Stability (Multiple Species): Rat - % Remaining after 30 min w/NADPH [7] [%] | Liver Microsome Stability (Multiple Species): Mouse - % Remaining after 30 min w/NADPH [8] [%] | Liver Microsome Stability (Multiple Species): Human - % Remaining after 30 min w/NADPH [9] [%] | Liver Microsome Stability (Multiple Species): Monkey - % Remaining after 30 min w/NADPH [10] [%]
1 | CC(=O)Nc1ccc(N2CCC[C@@H]2c2csc(NC(=O)c3cccn3CC3CCOCC3)n2)cc1 [Compound C107, (R)-N-(4-(1-(4-acetamidophenyl)pyrrolidin-2-yl)thiazol-2-yl)-1-((tetrahydro-2H-pyran-4-yl)methyl)-1H-pyrrole-2-carboxamide] | 32.2 | 793 | 24.6 | 56.2 | 87.1 | 2.7 | 2160 | > 25000 | 18.2 | 16.4 | 23.7 | 5.47
2 | CCc1ccc(N2CCC[C@@H]2c2csc(NC(=O)c3cccn3CC3CCOCC3)n2)cc1 [Compound C110, (R)-N-(4-(1-(4-ethylphenyl)pyrrolidin-2-yl)thiazol-2-yl)-1-((tetrahydro-2H-pyran-4-yl)methyl)-1H-pyrrole-2-carboxamide] | 31.4 | 302 | 9.61 | 46.4 | 94.9 | 3 | 1780 | > 25000 | 36 | 74.3 | 61.3 | 22.2
3 | O=C(Nc1nc([C@H]2CCCN2c2ccccc2)cs1)c1cccn1-c1cccc2cnccc12 [Compound C111, (R)-1-(isoquinolin-5-yl)-N-(4-(1-phenylpyrrolidin-2-yl)thiazol-2-yl)-1H-pyrrole-2-carboxamide] | 318 | 4940 | 15.5 | 295 | 654 | 2.1 | > 25000 | > 25000 | 0.62 | 0.64 | 0.86 | 0.28
4 | N#CC[C@@H](O)Cn1cccc1C(=O)Nc1nc([C@H]2CCCN2c2ccccc2)cs1 [Compound C112, 1-((R)-3-cyano-2-hydroxypropyl)-N-(4-((R)-1-phenylpyrrolidin-2-yl)thiazol-2-yl)-1H-pyrrole-2-carboxamide] | 545 | 9740 | 17.9 | 2240 | 2290 | 4.2 | 20700 | > 25000 | 12.6 | 3.03 | 23.6 | 13.1
5 | CCC(CC#N)Cn1cccc1C(=O)Nc1nc([C@H]2CCCN2c2ccccc2)cs1 (stereo partly drawn) [Compound C113, 1-(2-(cyanomethyl)butyl)-N-(4-((R)-1-phenylpyrrolidin-2-yl)thiazol-2-yl)-1H-pyrrole-2-carboxamide] | 879 | 16300 | 18.6 | 1330 | 1800 | 2 | 22800 | > 25000 | 14.8 | 5.06 | 14.9 | 3.66
